According to patent US20260364088A1, “TASL MIMICKING MOLECULES AND APPLICATIONS THEREOF” (CEMM - FORSCHUNGSZENTRUM FÜR MOLEKULARE MEDIZIN GMBH, priority 2022, published 2026):

What was measured:
CAL-1 pDCs = assay: ELISA of R848-induced responses in CAL-1 pDCs; assay type: cell-based, human
Protocol: CAL-1, THP1 or human primary cells were incubated with dTASL1 and other identified compounds (or the corresponding volume of DMSO vehicle) for 24 h or 48 h at the indicated concentration and subsequently stimulated with R848 (5 μg/ml) for the indicated time. Supernatant or cells were recovered for ELISA, SDS-PAGE or microscopy-based analysis.
All enzyme-linked immunosorbent assay (ELISA) experiments were performed using diluted cell supernatant according to manufacturer's instructions. ELISA kits for human IL-6 (no. 88-7066-88), human CCL2 (no. 88-7399-88) and human TNF (no. 88-7346-77) were from Invitrogen. ELISA kit for human interferon beta […] was from PBL Assay Science (41410-1).
Based on potency and kinetics, the compound C5 was selected for further characterization (FIG. 2E). C5 is an elongated molecule comprised of an aromatic 2-(4-ethoxyphenyl)-quinoline moiety followed by an amide bond and an aliphatic 2-methyl-1-propylpiperidine (FIG. 2F). To validate the scaffold and explore the chemical space at the aliphatic end of the compound, five analogues and an independently synthesized batch of C5 were obtained. […] Therefore the C5 compound was selected, which was named dTASL1 as its activity leads to TASL degradation, to assess effects on TLR7/8-induced signaling and responses.

SLC15A4-GFP = SLC15A4-GFP (Homo sapiens, UniProt Q8N697); assay: SLC15A4-GFP levels when expressed alone in HEK293T cells; assay type: cell-based; conditions: 10 µM, 24 h
Protocol: (§1) Cells transfected with TASL-V5 plasmid were stained for V5-tag and detected with deep red Alexa Fluor 647 secondary antibody to allow for selection in the presence of an mCherry reporter. Cells were measured either immediately after staining or in the case of live cells immediately after harvesting and washing with PBS. Data were acquired on a BD FACSCalibur (BD Biosciences) and analyzed with FlowJo software (version 10).
(§2) For live cell imaging cells were plated in PhenoPlate 96-well plates or Ibidi m-Slide 8 (Ibidi) wells at 16 k/well and incubated over-night. Then compounds were added, if indicated, and cells were imaged after 24 h of incubation. Cells were stained with LysoTracker Deep Red L12492 (ThermoFisher) and Hoechst 34580 (ThermoFisher). […] Images were analyzed with Fiji-ImageJ.
(§3) Encouraged by the fact that the chemical entity of the present invention was showing the desired behavior and specificity profile, it became important to better clarify the molecular basis of this uncommon mechanism of action, i.e interference with a highly specific protein interaction leading to degradation of a single complex component. The effect of dTASL1 on complex assembly was first monitored. […]

ΔN-SLC15A4-GFP = ΔN-SLC15A4-GFP (Homo sapiens, UniProt Q8N697); assay: ΔN-SLC15A4-GFP levels and localization in HEK293T cells; assay type: cell-based; conditions: 10 µM, 24 h
Protocol: as §1, §2, §3

[1] = system: TNF production in human peripheral blood mononuclear cells (PBMCs); assay: TNF ELISA, R848-stimulated PBMCs; assay type: cell-based; conditions: bulk PBMCs, dTASL1 10 µM 24 h, R848 (5 μg/ml) 16 h, n=8
From the text: HEK293T cells and THP1 cells were purchased from ATCC, THP1 DUAL/ISRE reporter cell lines from Invivogen. CAL-1 cells were provided by T. Maeda (Nagasaki University). Cell lines—except for CAL-1—were authenticated by short tandem repeat profiling and regularly tested for mycoplasma contamination. Human primary PBMCs were isolated from the blood of anonymous healthy donors as well as SLE patients included in our biobank approved by the ethics committee of the Medical University of Vienna (EK2071/2020 and EK1075/2021). CD14^+ monocytes were purified by magnetic-activated cell sorting (Miltenyi Biotec, #130-050-201) according to the manufacturers protocol. Purity of CD14^+ cells ranged between 80.8% and 94.2% as determined by flow cytometry analysis. […]
Given that all evidence obtained seems to confirm the mechanistic precision of this chemical agent, any further consideration of assessing the therapeutic potential required evidence for activity in human primary cells relevant for SLE pathophysiology. The effect of dTASL1 in human peripheral blood mononuclear cells (PBMCs) was assessed. […] The impact of dTASL1 on TLR7/8 responses by directly monitoring IRF5 by confocal microscopy in B cells was assessed.

IRF5 = IRF5 nuclear translocation in CD19^+ B cells of PBMCs (confocal microscopy); assay type: cell-based, human; conditions: primary B cells, dTASL1 10 µM 24 h, R848 (5 μg/ml) 3 h, n=7
Protocol: (§4) PBMCs were treated for 24 h with DMSO or dTASL1 (10 µM) and thereafter stimulated with 5 μg/ml R848 (Invivogen) for three hours or left unstimulated. Cells were harvested and stained for 30 minutes with PE-conjugated anti-CD19 antibodies (BioLegend, #302254, 1:200 in PBS/2% FBS) on ice and fixed with 4% formaldehyde in PBS for 15 minutes at RT. Permeabilization and staining for NF-κB p65 and IRF5 and counterstaining was performed as for CAL-1 and cells were seeded at a concentration of 3×10^4 cells/well onto 384-well imaging plates. Images were acquired on a PerkinElmer Opera Phenix HCS spinning disc confocal microscope and analyzed as described above with the additional identification of B cells based on CD19 membrane staining intensity. This protocol also applies to the cells obtained from SLE patients.
(§5) Given that all evidence obtained seems to confirm the mechanistic precision of this chemical agent, any further consideration of assessing the therapeutic potential required evidence for activity in human primary cells relevant for SLE pathophysiology. The effect of dTASL1 in human peripheral blood mononuclear cells (PBMCs) was assessed. […] It has been previously shown that the SLC15A4-TASL module was required for TNF production in primary human monocytes. […] The impact of dTASL1 on TLR7/8 responses by directly monitoring IRF5 by confocal microscopy in B cells was assessed.

NF-κB p65 = NF-κB p65 nuclear translocation in CD19^+ B cells of PBMCs (confocal microscopy); assay type: cell-based, human; conditions: primary B cells, dTASL1 10 µM 24 h, R848 (5 μg/ml) 3 h, n=7
Protocol: as §4, §5

Chain of ΔN-SLC15A4-GFP (Q8N697 whole entry, stated change not applied): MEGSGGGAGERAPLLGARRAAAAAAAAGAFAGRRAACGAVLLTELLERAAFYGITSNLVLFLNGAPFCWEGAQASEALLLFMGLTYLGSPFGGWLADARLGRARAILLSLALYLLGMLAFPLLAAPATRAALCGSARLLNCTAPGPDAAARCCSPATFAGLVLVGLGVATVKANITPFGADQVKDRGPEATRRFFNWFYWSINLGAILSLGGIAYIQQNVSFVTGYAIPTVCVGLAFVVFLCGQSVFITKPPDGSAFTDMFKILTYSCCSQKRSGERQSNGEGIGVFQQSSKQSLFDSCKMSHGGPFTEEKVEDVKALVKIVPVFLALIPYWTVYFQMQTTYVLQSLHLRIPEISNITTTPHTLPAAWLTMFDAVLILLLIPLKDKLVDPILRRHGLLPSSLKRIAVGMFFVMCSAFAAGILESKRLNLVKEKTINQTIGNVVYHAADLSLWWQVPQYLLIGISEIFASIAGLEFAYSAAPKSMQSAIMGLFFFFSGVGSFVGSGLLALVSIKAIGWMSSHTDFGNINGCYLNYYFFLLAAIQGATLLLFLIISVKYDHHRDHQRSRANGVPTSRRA
Chain of SLC15A4-GFP (Q8N697 whole entry): as the sequence (Q8N697 whole entry, stated change not applied) above

Compound: CCOc1ccc(-c2cc(C(=O)NCCCN3CCCCC3C)c3ccccc3n2)cc1 (stereo not shown) [dTASL1, 2-(4-ethoxyphenyl)-N-(3-(2-methylpiperidin-1-yl)propyl) quinoline-4-carboxamide]
- R848-induced responses (CAL-1 pDCs; CAL-1 pDCs, 24 h pre-treatment, R848 (5 μg/ml) 16-24 h): strongly suppressed R848-induced responses
- downstream type I IFN production (CAL-1 pDCs; human monocytic and pDC cell lines): specifically impairs TLR7/8-induced IRF5 activation and downstream type I IFN production
- total levels of SLC15A4-GFP (SLC15A4-GFP): did not affect total levels of SLC15A4-GFP
- levels or localization of ΔN-SLC15A4-GFP (ΔN-SLC15A4-GFP): did not affect levels or localization of ΔN-SLC15A4-GFP
- TNF production [1]: potently impaired TNF
- IRF5 nuclear translocation (IRF5): significantly reduced IRF5 nuclear translocation
- activation of NF-κB p65 (NF-κB p65): without affecting the activation of NF-κB p65
